“Also recorded” adds a separate entry of the source.
How the values were obtained:
human Nav1.6 [1] = target: T1, human Nav1.6 (Homo sapiens, UniProt Q9UQD0); test: Peak INa tonic block (TB), automated patch clamp in HEK cells; format: cell-based; details: ratio of peak INa (TB) to persistent INa IC50
T1 construct: HEK-293 cell lines stably expressing human Nav1.6 (NP_055006) were used; expressed in transfected cells

human Nav1.6 [2] = target: T1, human Nav1.6; test: ATX-II activated late (persistent) INa block, automated patch clamp in HEK cells; format: cell-based
[3] = Phase 1 clinical trial, single ascending dose (Part A), healthy volunteers; format: in vivo, human
Text: This is a trial to assess the safety, tolerability, pharmacokinetics (PK), and pharmacodynamics (PD) of Compound 1 in healthy participants aged 18 to 55 years (inclusive). The trial is initially comprised of 2 parts, with 1 additional optional part, as follows: • Part A is randomized, double-blinded, and placebo-controlled. Part A is designed to investigate the safety, PK, and PD of single ascending doses of Compound 1. • Part B is randomized, double-blinded, and placebo-controlled. Part B is designed to investigate the safety, PK, and PD of multiple ascending doses (selected based on the results from Part A) of Compound 1. • Part C (optional) is a randomized, open-label, crossover design food effect evaluation to investigate the PK of a single dose (selected based on the results from Part A) of Compound 1 in the fasted and fed state.
Safety and tolerability assessments for Parts A, B, and C will include vital signs, 12-lead ECGs, physical examinations, clinical laboratory tests, and the C-SSRS (for Part B).
Healthy participants will be enrolled to receive single ascending oral doses of Compound 1 or placebo on Day 1. FIG. 14A is an illustration of the dosing scheme for Part A (single ascending dose) of the trial. Dose escalation in Part A will initially be conducted in up to a total of 4 planned cohorts (Cohorts A1 to A4). Following completion of Cohort A4, up to an additional 3 escalation cohorts may be added. […] Doses may be adjusted upward or downward based on safety, tolerability, and PK data from the preceding cohorts. Cohorts after A4 will be numbered sequentially (A5, A6, etc.). […]
Compound 1 will be administered to Cohort A1 participants at the starting dose of 5 mg. […] The safety and tolerability of each sentinel participant will be monitored until Day 2 and will be reviewed prior to dosing the remainder of participants in the cohort. […]
Cohorts will be dosed in an escalating order. […] If the current dose level is determined to be safe and tolerated by the SRC, the next dose cohort will be randomized to receive the selected dose of active Compound 1 or placebo. […]

T1 sequence (Q9UQD0 whole entry): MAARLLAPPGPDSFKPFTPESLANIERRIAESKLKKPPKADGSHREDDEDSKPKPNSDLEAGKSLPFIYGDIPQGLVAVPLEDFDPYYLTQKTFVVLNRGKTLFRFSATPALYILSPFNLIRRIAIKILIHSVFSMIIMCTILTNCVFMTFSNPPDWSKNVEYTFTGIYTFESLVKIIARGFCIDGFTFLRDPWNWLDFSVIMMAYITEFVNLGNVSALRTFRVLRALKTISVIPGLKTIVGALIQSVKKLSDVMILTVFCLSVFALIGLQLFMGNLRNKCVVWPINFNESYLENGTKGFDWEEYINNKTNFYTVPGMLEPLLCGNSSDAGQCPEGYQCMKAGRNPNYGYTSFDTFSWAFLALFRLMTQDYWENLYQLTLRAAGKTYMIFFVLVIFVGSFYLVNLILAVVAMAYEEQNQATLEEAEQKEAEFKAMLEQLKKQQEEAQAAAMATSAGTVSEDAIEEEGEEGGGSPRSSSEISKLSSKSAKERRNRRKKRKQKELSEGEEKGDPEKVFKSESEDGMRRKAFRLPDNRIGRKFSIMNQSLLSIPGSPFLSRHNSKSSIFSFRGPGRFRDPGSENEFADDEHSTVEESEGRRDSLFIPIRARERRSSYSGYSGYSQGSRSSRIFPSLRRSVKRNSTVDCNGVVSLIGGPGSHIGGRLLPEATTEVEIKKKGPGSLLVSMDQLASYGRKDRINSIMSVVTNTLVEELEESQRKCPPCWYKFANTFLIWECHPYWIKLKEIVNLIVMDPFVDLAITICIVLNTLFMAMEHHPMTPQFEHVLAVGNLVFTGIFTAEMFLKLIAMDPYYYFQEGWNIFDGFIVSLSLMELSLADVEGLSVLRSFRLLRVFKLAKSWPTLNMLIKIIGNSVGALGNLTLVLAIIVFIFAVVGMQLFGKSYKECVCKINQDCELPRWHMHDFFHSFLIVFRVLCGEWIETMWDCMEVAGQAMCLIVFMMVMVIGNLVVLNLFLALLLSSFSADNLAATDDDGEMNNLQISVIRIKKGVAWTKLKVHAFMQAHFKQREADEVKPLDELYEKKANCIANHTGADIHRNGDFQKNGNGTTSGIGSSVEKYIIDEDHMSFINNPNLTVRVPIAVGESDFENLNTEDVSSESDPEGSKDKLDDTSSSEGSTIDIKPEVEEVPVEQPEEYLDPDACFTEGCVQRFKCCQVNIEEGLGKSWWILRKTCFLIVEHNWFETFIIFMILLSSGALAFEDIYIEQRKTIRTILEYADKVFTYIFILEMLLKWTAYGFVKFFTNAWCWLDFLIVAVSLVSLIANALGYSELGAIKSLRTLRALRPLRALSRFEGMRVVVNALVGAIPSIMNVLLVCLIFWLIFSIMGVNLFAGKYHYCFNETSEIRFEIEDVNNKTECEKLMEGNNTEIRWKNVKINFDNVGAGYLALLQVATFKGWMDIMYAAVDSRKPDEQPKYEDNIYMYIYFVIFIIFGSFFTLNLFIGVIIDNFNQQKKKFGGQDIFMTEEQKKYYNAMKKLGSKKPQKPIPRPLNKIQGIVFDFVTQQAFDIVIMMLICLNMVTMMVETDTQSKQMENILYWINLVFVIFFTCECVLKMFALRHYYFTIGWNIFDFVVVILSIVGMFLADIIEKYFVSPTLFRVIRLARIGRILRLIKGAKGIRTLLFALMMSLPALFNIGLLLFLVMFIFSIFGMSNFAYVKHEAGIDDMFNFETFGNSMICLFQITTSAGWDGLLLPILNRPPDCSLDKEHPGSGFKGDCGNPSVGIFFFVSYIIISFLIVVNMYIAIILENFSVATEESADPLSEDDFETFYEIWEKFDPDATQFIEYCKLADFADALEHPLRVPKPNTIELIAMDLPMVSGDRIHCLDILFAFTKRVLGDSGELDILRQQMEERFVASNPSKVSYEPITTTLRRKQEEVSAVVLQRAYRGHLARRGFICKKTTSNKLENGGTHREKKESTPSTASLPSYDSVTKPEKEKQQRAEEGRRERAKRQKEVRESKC

## CCOC(F)(F)c1nnc2ccc(-c3cnc(OCC(F)(F)F)c(F)c3)cn12 [Compound 1]
Human Nav1.6 [1]
  Peak INa TB Ratio to Pers. INa: 68
Human Nav1.6 [2]
  persistent INa preference to TB: 68 ×
  potency for persistent INa relative to the other tested INa blocking agents: at least 550 ×
Human Nav1.6 [2]; hNav1.6
  inhibition of and preference for persistent INa (in words): concentration dependent inhibition of late sodium current; also recorded: preference for persistent INa relative to peak INa for all assay conditions; also recorded: potently inhibited ATX-II-induced persistent INa; also recorded: potent inhibition of persistent INa; also recorded: potent inhibitor of persistent INa; also recorded: increased potency for persistent INa relative to standard NaV-targeting ASMs
Human Nav1.6 [2]; hNav1.6 in HEK cells
  Persistent INa Hill slope: (1.4)
[3]; healthy participants, single oral doses up to 45 mg
  safety and tolerability (in words): safe and generally well tolerated
[3]; single doses up to 45 mg
  most frequently reported TEAEs: headache and fatigue
  severity of treatment-emergent adverse events: mild in severity
